Assay results from ChEMBL document CHEMBL1125503, “Preparation and structure-activity relationships of simplified analogues of the antifungal agent cilofungin: a total synthesis approach” (J Med Chem, 1992).
Converted amounts (≈) assume the structure as drawn. Values belong to the compound of their own block, whether it stands above or below them. Starred links: 1 amine or outer side, 2 acyl side, 3 side chain; linkers in the order of their positions; H or OH if unused. Positions of bridges follow the written chain, without caps; N, C: chain ends. Non-standard residues stand in square brackets, D forms with d. Residues, ends and D or L forms follow the SMILES beside them. *: point of attachment. Orn(4R-OH,5R-OH) = O=C([C@H](C[C@@H](O)[C@@H](O)N[*:3])N[*:1])[*:2]; hTyr(3S-OH,4S-OH) = N[C@H](C(=O)O)[C@H](O)[C@@H](O)c1ccc(O)cc1; Pro(3S-OH,4S-Me) = C[C@H]1CN[C@H](C(=O)O)[C@H]1O; Benzoyl(4-octyloxy) = CCCCCCCCOc1ccc(C(=O)*)cc1; hTyr = N[C@@H](CCc1ccc(O)cc1)C(=O)O; Hyp = O=C(O)[C@@H]1C[C@@H](O)CN1; Orn = NCCC[C@H](N)C(=O)O

Columns and labels:
Candida parapsilosis = test: Antifungal activity on Candida parapsilosis MY1010; assay type: functional; details: Lodderomyces parapsilosis
Candida tropicalis = test: Antifungal activity on Candida tropicalis MY101; assay type: functional
Candida albicans [1] = test: Concentration inhibiting Candida beta-1,3-glucan synthesis was determined in a Candida albicans cell culture; assay type: functional, organism-based
Candida albicans [2] = test: Antifungal activity on Candida albicans MY1028.; assay type: functional
Candida albicans [3] = test: Antifungal activity on Candida albicans MY1055.; assay type: functional
Candida albicans [4] = test: Antifungal activity on Candida albicans MY1208.; assay type: functional

Compound: CCCCCCCCOc1ccc(C(=O)N[C@H]2CCCNC(=O)[C@@H]3CCCN3C(=O)[C@H]([C@@H](C)O)NC(=O)[C@H](CCc3ccc(O)cc3)NC(=O)[C@@H]3CCCN3C(=O)[C@H]([C@@H](C)O)NC2=O)cc1 ({Benzoyl(4-octyloxy)}-[Orn]TP[hTyr]TP; lactam 1-C)
- MFC (Candida parapsilosis): > 128 µg/mL
- MFC (Candida tropicalis): 4 µg/mL (≈ 4.35 µM)
- IC50 (Candida albicans [1]): > 10 µM
- MFC (Candida albicans [3]): 4 µg/mL (≈ 4.35 µM)
- MFC (Candida albicans [4]): 4 µg/mL (≈ 4.35 µM)

Compound: CCCCCCCCOc1ccc(C(=O)N[C@H]2CCCNC(=O)[C@@H]3CCCN3C(=O)[C@H]([C@@H](C)O)NC(=O)[C@H](Cc3ccc(O)cc3)NC(=O)[C@@H]3C[C@@H](O)CN3C(=O)[C@H]([C@@H](C)O)NC2=O)cc1 ({Benzoyl(4-octyloxy)}-[Orn]T[Hyp]YTP; lactam 1-C)
- MFC (Candida parapsilosis): > 128 µg/mL
- MFC (Candida tropicalis): > 128 µg/mL
- IC50 (Candida albicans [1]): > 10 µM
- MFC (Candida albicans [2]): > 128 µg/mL
- MFC (Candida albicans [4]): > 128 µg/mL

Compound: CCCCCCCCOc1ccc(C(=O)N[C@H]2CCCNC(=O)[C@@H]3C[C@@H](O)CN3C(=O)[C@H]([C@@H](C)O)NC(=O)[C@H](Cc3ccc(O)cc3)NC(=O)[C@@H]3C[C@@H](O)CN3C(=O)[C@H]([C@@H](C)O)NC2=O)cc1 ({Benzoyl(4-octyloxy)}-[Orn]T[Hyp]YT[Hyp]; lactam 1-C)
- MFC (Candida parapsilosis): > 128 µg/mL
- MFC (Candida tropicalis): > 128 µg/mL
- IC50 (Candida albicans [1]): > 10 µM
- MFC (Candida albicans [2]): > 128 µg/mL
- MFC (Candida albicans [3]): > 128 µg/mL
- MFC (Candida albicans [4]): > 128 µg/mL

Compound: CCCCCCCCOc1ccc(C(=O)N[C@H]2CCCNC(=O)[C@@H]3[C@@H](O)[C@@H](C)CN3C(=O)[C@H]([C@@H](C)O)NC(=O)[C@H](Cc3ccc(O)cc3)NC(=O)[C@@H]3C[C@@H](O)CN3C(=O)[C@H]([C@@H](C)O)NC2=O)cc1 ({Benzoyl(4-octyloxy)}-[Orn]T[Hyp]YT[Pro(3S-OH,4S-Me)]; lactam 1-C)
- MFC (Candida parapsilosis): > 128 µg/mL
- MFC (Candida tropicalis): > 128 µg/mL
- MFC (Candida albicans [2]): > 128 µg/mL
- MFC (Candida albicans [3]): > 128 µg/mL
- MFC (Candida albicans [4]): > 128 µg/mL

Compound: CCCCCCCCOc1ccc(C(=O)N[C@H]2C[C@@H](O)[C@@H](O)NC(=O)[C@@H]3[C@@H](O)[C@@H](C)CN3C(=O)[C@H]([C@@H](C)O)NC(=O)[C@H]([C@H](O)[C@@H](O)c3ccc(O)cc3)NC(=O)[C@@H]3C[C@@H](O)CN3C(=O)[C@H]([C@@H](C)O)NC2=O)cc1 [CILOFUNGIN] ({Benzoyl(4-octyloxy)}-[Orn(4R-OH,5R-OH)]T[Hyp][hTyr(3S-OH,4S-OH)]T[Pro(3S-OH,4S-Me)]; lactam 1-C)
- MFC (Candida parapsilosis): 8 µg/mL (≈ 7.77 µM)
- MFC (Candida tropicalis): 0.5 µg/mL (≈ 0.485 µM)
- IC50 (Candida albicans [1]): 1 µM
- MFC (Candida albicans [2]): 0.5 µg/mL (≈ 0.485 µM)
- MFC (Candida albicans [3]): 0.5 µg/mL (≈ 0.485 µM)
- MFC (Candida albicans [4]): 2 µg/mL (≈ 1.94 µM)

Second part, led by results:

- IC50 (Candida albicans [1]): > 10 µM
Compound: C[C@@H](O)[C@@H]1NC(=O)[C@H](CCc2ccc(O)cc2)NC(=O)[C@@H]2C[C@@H](O)CN2C(=O)[C@H]([C@@H](C)O)NC(=O)[C@@H](N)CCCNC(=O)[C@H]([C@@H](C)O)NC1=O (H-[Orn]T[Hyp][hTyr]TT; lactam 1-C)
- MFC (Candida parapsilosis): > 128 µg/mL
- MFC (Candida tropicalis): 4 µg/mL (≈ 5.65 µM)
- MFC (Candida albicans [2]): 8 µg/mL (≈ 11.3 µM)
- MFC (Candida albicans [3]): 8 µg/mL (≈ 11.3 µM)
- MFC (Candida albicans [4]): 8 µg/mL (≈ 11.3 µM)

- IC50 (Candida albicans [1]): > 10 µM
Compound: CCCCCCCCOc1ccc(C(=O)N[C@H]2CCCNC(=O)[C@@H]3CCCN3C(=O)[C@H]([C@@H](C)O)NC(=O)[C@H](Cc3ccc(O)cc3)NC(=O)[C@@H]3CCCN3C(=O)[C@H]([C@@H](C)O)NC2=O)cc1 ({Benzoyl(4-octyloxy)}-[Orn]TPYTP; lactam 1-C)
- MFC (Candida tropicalis): > 64 µg/mL
- MFC (Candida albicans [2]): > 64 µg/mL
- MFC (Candida albicans [3]): > 64 µg/mL
- MFC (Candida albicans [4]): > 64 µg/mL

- IC50 (Candida albicans [1]): > 10 µM
Compound: CCCCCCCCOc1ccc(C(=O)N[C@H]2CCCNC(=O)[C@@H]3C[C@@H](O)CN3C(=O)[C@H]([C@@H](C)O)NC(=O)[C@H](Cc3ccc(O)cc3)NC(=O)[C@@H]3CCCN3C(=O)[C@H]([C@@H](C)O)NC2=O)cc1 ({Benzoyl(4-octyloxy)}-[Orn]TPYT[Hyp]; lactam 1-C)
- MFC (Candida parapsilosis): > 128 µg/mL
- MFC (Candida tropicalis): > 128 µg/mL
- MFC (Candida albicans [2]): > 128 µg/mL
- MFC (Candida albicans [3]): > 128 µg/mL
- MFC (Candida albicans [4]): > 128 µg/mL

- IC50 (Candida albicans [1]): 10 µM
Compound: CCCCCCCCOc1ccc(C(=O)N[C@H]2CCCNC(=O)[C@@H]3CCCN3C(=O)[C@H]([C@@H](C)O)NC(=O)[C@H](CCc3ccc(O)cc3)NC(=O)[C@@H]3C[C@@H](O)CN3C(=O)[C@H]([C@@H](C)O)NC2=O)cc1 ({Benzoyl(4-octyloxy)}-[Orn]T[Hyp][hTyr]TP; lactam 1-C)
- MFC (Candida parapsilosis): 8 µg/mL (≈ 8.55 µM)
- MFC (Candida tropicalis): 0.25 µg/mL (≈ 0.267 µM)
- MFC (Candida albicans [2]): 4 µg/mL (≈ 4.27 µM)
- MFC (Candida albicans [3]): 8 µg/mL (≈ 8.55 µM)
- MFC (Candida albicans [4]): 4 µg/mL (≈ 4.27 µM)

- IC50 (Candida albicans [1]): 10 µM
Compound: CCCCCCCCOc1ccc(C(=O)N[C@H]2CCCNC(=O)[C@@H]3C[C@@H](O)CN3C(=O)[C@H]([C@@H](C)O)NC(=O)[C@H](CCc3ccc(O)cc3)NC(=O)[C@@H]3C[C@@H](O)CN3C(=O)[C@H]([C@@H](C)O)NC2=O)cc1 ({Benzoyl(4-octyloxy)}-[Orn]T[Hyp][hTyr]T[Hyp]; lactam 1-C)
- MFC (Candida parapsilosis): > 128 µg/mL
- MFC (Candida tropicalis): 8 µg/mL (≈ 8.4 µM)
- MFC (Candida albicans [2]): 8 µg/mL (≈ 8.4 µM)
- MFC (Candida albicans [3]): 8 µg/mL (≈ 8.4 µM)
- MFC (Candida albicans [4]): 8 µg/mL (≈ 8.4 µM)

- IC50 (Candida albicans [1]): 3 µM
Compound: CCCCCCCCOc1ccc(C(=O)N[C@H]2CCCNC(=O)[C@@H]3[C@@H](O)[C@@H](C)CN3C(=O)[C@H]([C@@H](C)O)NC(=O)[C@H](CCc3ccc(O)cc3)NC(=O)[C@@H]3C[C@@H](O)CN3C(=O)[C@H]([C@@H](C)O)NC2=O)cc1 ({Benzoyl(4-octyloxy)}-[Orn]T[Hyp][hTyr]T[Pro(3S-OH,4S-Me)]; lactam 1-C)
- MFC (Candida parapsilosis): 8 µg/mL (≈ 8.28 µM)
- MFC (Candida tropicalis): 1 µg/mL (≈ 1.04 µM)
- MFC (Candida albicans [2]): 2 µg/mL (≈ 2.07 µM)
- MFC (Candida albicans [3]): 1 µg/mL (≈ 1.04 µM)
- MFC (Candida albicans [4]): 2 µg/mL (≈ 2.07 µM)
